Source: paper PMC3707514 (Chemical research in toxicology, 2013)
Values belong to the molecule of their own block, whether it stands above or below them.

What was measured:
P450 2S1 [1] = target: T1, P450 2S1 (Homo sapiens, UniProt Q96SQ9); assay type: biochemical
T1 sequence (Q96SQ9 1-504): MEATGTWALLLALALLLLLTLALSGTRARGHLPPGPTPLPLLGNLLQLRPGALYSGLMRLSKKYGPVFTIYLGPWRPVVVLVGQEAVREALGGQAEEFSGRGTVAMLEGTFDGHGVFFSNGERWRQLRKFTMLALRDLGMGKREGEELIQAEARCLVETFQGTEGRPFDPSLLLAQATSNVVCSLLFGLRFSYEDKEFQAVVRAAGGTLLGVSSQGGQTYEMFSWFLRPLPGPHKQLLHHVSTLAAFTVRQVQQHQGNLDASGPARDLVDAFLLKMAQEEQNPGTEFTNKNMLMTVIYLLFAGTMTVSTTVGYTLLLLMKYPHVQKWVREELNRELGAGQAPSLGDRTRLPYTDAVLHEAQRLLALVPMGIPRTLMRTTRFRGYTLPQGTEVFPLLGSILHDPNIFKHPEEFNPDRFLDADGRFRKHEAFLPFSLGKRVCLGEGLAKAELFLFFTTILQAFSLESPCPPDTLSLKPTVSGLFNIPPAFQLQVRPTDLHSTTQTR

P450 2S1 [2] = target: T1, P450 2S1; assay type: biochemical; remark: listed apart in the source
P450 2S1 [3] = target: T1, P450 2S1; assay type: biochemical; remark: listed apart in the source
P450 2S1 [4] = target: T1, P450 2S1; test: UV-visible difference spectral titration of purified P450 2S1; assay type: binding

SMILES: ONc1ccc2c(c1)Cc1ccccc1-2 [2-HONH-fluorene]
anaerobic reduction to 2-aminofluorene by purified P450 2S1, HPLC, minus-P450 co (P450 2S1 [1]): 0.34 ± 0.12 min⁻¹

SMILES: ONc1ccc2ccccc2c1 [2-HONH-naphthalene]
anaerobic reduction to 2-naphthylamine by purified P450 2S1, HPLC, minus-P450 co (P450 2S1 [2]): 2.4 ± 0.8 min⁻¹

SMILES: ONc1ccc(-c2ccccc2)cc1 [4-HONH-biphenyl]
anaerobic reduction to 4-aminobiphenyl by purified P450 2S1, HPLC, minus-P450 co (P450 2S1 [3]): 0.18 ± 0.01 min⁻¹

Kd (P450 2S1 [4]): 30 ± 10 µM
SMILES: Cc1cc(-c2nc3cc(F)ccc3s2)ccc1NO [HONH-5F 203, 2-(4-hydroxylamino-3-methylphenyl)-5-fluorobenzothiazole]
